# PMC1977344 (British Journal of Cancer, 1992)
# pIC50: −log10 of the molar value. Where two headings read alike, the source gives them in different places.
# Legend:
# [1] = cited from earlier work
# [2] = normal volunteers; ref Thompson et al., 1990; cited from earlier work
# delta receptor [3] = biological target: T1, delta receptor (Rattus norvegicus, UniProt P33533); test: Radioligand binding, delta assay (3H-DSLET displacement with DAGO block, rat brain P2 homogenate); parameters: species or system Wistar rats
# T1 construct: from tissue
# T1 sequence (P33533 whole entry): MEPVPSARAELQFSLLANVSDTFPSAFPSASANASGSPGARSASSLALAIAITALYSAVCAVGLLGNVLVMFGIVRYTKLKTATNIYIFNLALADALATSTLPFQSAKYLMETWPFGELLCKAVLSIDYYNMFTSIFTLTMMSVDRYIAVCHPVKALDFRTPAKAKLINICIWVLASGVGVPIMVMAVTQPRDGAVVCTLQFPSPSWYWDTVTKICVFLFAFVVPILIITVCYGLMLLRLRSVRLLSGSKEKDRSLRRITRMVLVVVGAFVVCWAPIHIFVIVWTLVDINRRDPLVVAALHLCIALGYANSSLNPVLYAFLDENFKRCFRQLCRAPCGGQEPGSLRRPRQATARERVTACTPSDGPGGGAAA
# mu 2 receptor [4] = biological target: T2, mu 2 receptor (Rattus norvegicus, UniProt P33535); test: biochemical; settings: IC50 mu 2 receptor
# T2 sequence (P33535 whole entry): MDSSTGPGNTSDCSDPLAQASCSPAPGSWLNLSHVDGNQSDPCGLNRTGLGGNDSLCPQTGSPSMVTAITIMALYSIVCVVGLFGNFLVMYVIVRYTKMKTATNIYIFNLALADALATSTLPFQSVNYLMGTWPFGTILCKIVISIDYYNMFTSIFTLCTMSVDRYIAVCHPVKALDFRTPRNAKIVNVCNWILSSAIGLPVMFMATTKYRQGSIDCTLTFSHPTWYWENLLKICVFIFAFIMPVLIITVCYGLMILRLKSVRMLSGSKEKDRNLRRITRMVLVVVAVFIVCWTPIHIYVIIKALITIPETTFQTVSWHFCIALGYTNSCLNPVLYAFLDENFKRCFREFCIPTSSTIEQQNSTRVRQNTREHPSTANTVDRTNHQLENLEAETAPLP
# mu 2 receptor [5] = biological target: T2, mu 2 receptor; settings: for fold lower affinity of M6G than morphine at the mu 2 receptor (IC50 ratio): from mean IC50s; for specific binding of the 3H-ligand remaining, mu 2 assay: test substance at 5 µM (5 pM in methods)
# mu 1 receptor = mu 1 receptor (Rattus norvegicus, UniProt P33535); test: Radioligand binding, mu 1 assay (3H-DSLET displacement with DPDPE block, rat brain P2 homogenate); parameters: species or system Wistar rats
# Chain of mu 1 receptor (P33535 whole entry): as above
# [6] = ref Shimomum et al. (1971); cited from earlier work
# [7] = biological target: T3, total mu (mu 1 and mu 2) receptor (Rattus norvegicus, UniProt P33535); test: Radioligand binding, total mu assay (3H-DAGO displacement, rat brain P2 homogenate); parameters: species or system Wistar rats; specific binding of the 3H-ligand remaining, total mu assay: dose or concentration left out as unconfirmed
# T3 construct: from tissue
# T3 sequence (P33535 whole entry): as above
# kappa receptor = system: kappa receptor; parameters: method as in Pasternak et al., 1987; settings: not yet accurately determined; ref Pasternak et al., 1987; cited from earlier work
# [8] = open study in man; ref Osborne et al., 1989; cited from earlier work
# delta receptor [9] = system: delta receptor; parameters: method as in Oguri et al. (1987); settings: 3H-leucine enkephalin; ref Oguri et al. (1987); cited from earlier work
# [10] = test substance at 5 µM (5 pM in methods)
compound,measurement,setting,value
"CN1CC[C@]23c4c5ccc(O[C@@H]6O[C@H](C(=O)O)[C@@H](O)[C@H](O)[C@H]6O)c4O[C@H]2[C@@H](O)C=C[C@H]3[C@H]1C5 [M3G, morphine 3-glucuronide]",analgesic activity,"[1]; ref Osborne et al., 1986, Hanks et al., 1987, Hoskin & Hanks, 1990",devoid of analgesic activity
"CN1CC[C@]23c4c5ccc(O)c4O[C@H]2[C@@H](O[C@@H]2O[C@H](C(=O)O)[C@@H](O)[C@H](O)[C@H]2O)C=C[C@H]3[C@H]1C5 [M6G, morphine 6-glucuronide]",nausea and sedation versus morphine,[2],less nausea and no sedation
same,respiratory depression versus equipotent dose of morphine,[2],significantly less respiratory depression
same,pIC50,delta receptor [3],7.12
same,pIC50,"mu 2 receptor [4]; brain minus hypothalami, P2 fraction, 3H-DAGO 1.5 nM, DSLET 5 nM block, mean ± SEM",7.09
same,pIC50,"mu 2 receptor [4]; whole brain preparations, P2 fraction of whole rat brain homogenate, single assay",7.18
same,fold lower affinity of M6G than morphine at the mu 2 receptor (IC50 ratio),mu 2 receptor [5],4.8 fold
same,fold lower affinity of M6G than morphine at the mu 2 receptor (IC50 ratio),mu 2 receptor [5]; listed as Morphine 6-glucuronide,4 fold
same,pIC50,"mu 1 receptor; read-out: IC50 mu 1 receptor, whole brain preparations, P2 fraction of whole rat brain homogenate, single assay",6.77
same,systemic LD50 relative to that of morphine,[6],88%
same,pIC50,[7],7.10
same,affinity for the kappa receptor,kappa receptor,thought to be low
same,nausea or sedation at doses sufficient to give significant pain relief,[8],no nausea or sedation was seen
same,affinity for the delta receptor relative to morphine,delta receptor [9],slightly higher affinity
same,systemic analgesic potency advantage over morphine,"[1]; systemic, ref Shimomura et al., 1971, Abbott & Palmour, 1988",3 fold
CN1CC[C@@]23CCCC[C@@H]2[C@@H]1Cc1ccc(O)cc13 [dextrorphan],"specific binding of the 3H-ligand remaining, delta assay",delta receptor [3]; [10],no inhibition was observed
same,"specific binding of the 3H-ligand remaining, mu 2 assay",mu 2 receptor [5],72%
same,"specific binding of the 3H-ligand remaining, mu 1 assay",mu 1 receptor; [10],no inhibition was observed
same,"specific binding of the 3H-ligand remaining, total mu assay",[7],70%
CN1CC[C@]23CCCC[C@H]2[C@H]1Cc1ccc(O)cc13 [levorphanol],"specific binding of the 3H-ligand remaining, delta assay",delta receptor [3],0%
same,"specific binding of the 3H-ligand remaining, mu 2 assay",mu 2 receptor [5],28%
same,"specific binding of the 3H-ligand remaining, mu 1 assay",mu 1 receptor,1%
same,"specific binding of the 3H-ligand remaining, total mu assay",[7],0%
